The source made the active and inactive calls. No cut-off for these calls is given here.
Tests used:
[1] = system: Canis familiaris; test: Coronary vasodilatory activity as increase in coronary flow was determined in dogs after 0.1 mg/kg i.v. administration of the compound; (SE +/- 7.4); type: functional, Canis lupus familiaris; details: route intravenous
[2] = system: Canis familiaris; test: Coronary vasodilatory activity as increase in coronary flow was determined in dogs after 0.1 mg/kg i.v. administration of the compound; (SE +/- 9.9); type: functional, Canis lupus familiaris; details: route intravenous
[3] = system: Canis familiaris; test: Coronary vasodilatory activity as increase in coronary flow was determined in dogs after 0.1 mg/kg i.v. administration of the compound; type: functional, Canis lupus familiaris; details: route intravenous
[4] = Partition coefficient (logP); type: physicochemical; details: octanol/water
[5] = system: Canis familiaris; test: Ability to increase coronary blood flow after intra duodenal administration at 3 mg/kg in dog; (SE +/- 24); type: functional, Canis lupus familiaris; details: route intraduodenal
[6] = species on record: Cavia porcellus; test: Calcium antagonistic activity in isolated guinea pig Tenia coli specimens; (SE +/- 0.10); type: functional; details: read-out: pA2 (converted)
[7] = system: Canis familiaris; test: Coronary vasodilatory activity as increase in coronary flow was determined in dogs after 0.1 mg/kg i.v. administration of the compound; (SE +/- 9); type: functional, Canis lupus familiaris; details: route intravenous
[8] = Lethal effect after per os administration in mouse for 7 days; type: toxicity; details: in vivo, po
[9] = system: Canis familiaris; test: Coronary vasodilatory activity as increase in coronary blood flow was determined in dogs after i.v. administration of the compound; type: functional, Canis lupus familiaris, Artery
[10] = system: Canis familiaris; test: Coronary vasodilatory activity as increase in coronary flow was determined in dogs after 0.1 mg/kg i.v. administration of the compound; IA = Inactive; type: functional, organism-based; parameters: dose 0.1 mg/kg; details: Canis lupus familiaris; at 0.1 mg/kg
[11] = system: Canis familiaris; test: Coronary vasodilatory activity as increase in coronary flow was determined in dogs after 0.1 mg/kg i.v. administration of the compound; (SE +/- 27); type: functional, Canis lupus familiaris; details: route intravenous
[12] = system: Canis familiaris; test: Ability to increase coronary blood flow after intra duodenal administration at 3 mg/kg in dog; (SE +/- 23); type: functional, Canis lupus familiaris, Blood/Heart; details: route intraduodenal
[13] = species on record: Cavia porcellus; test: Calcium antagonistic activity in isolated guinea pig Tenia coli specimens; (SE +/- 0.06); type: functional; details: read-out: pA2 (converted)
[14] = system: Canis familiaris; test: Coronary vasodilatory activity as increase in coronary flow was determined in dogs after 0.1 mg/kg i.v. administration of the compound; (SE +/- 0.1); type: functional, Canis lupus familiaris; details: route intravenous
[15] = system: Canis familiaris; test: Coronary vasodilatory activity as increase in coronary flow was determined in dogs after 0.1 mg/kg i.v. administration of the compound; (SE +/- 8.2); type: functional, Canis lupus familiaris; details: route intravenous
[16] = system: Canis familiaris; test: Ability to increase coronary blood flow after intra duodenal administration at 3 mg/kg in dog; (SE +/- 21); type: functional, Canis lupus familiaris; details: route intraduodenal
[17] = species on record: Cavia porcellus; test: Calcium antagonistic activity in isolated guinea pig Tenia coli specimens; (SE +/- 0.11); type: functional; details: read-out: pA2 (converted)
[18] = system: Canis familiaris; test: Ability to increase coronary blood flow after intra duodenal administration at 3 mg/kg in dog; (SE +/- 38); type: functional, Canis lupus familiaris; details: route intraduodenal
[19] = system: Canis familiaris; test: Coronary vasodilatory activity as increase in coronary flow was determined in dogs after 0.1 mg/kg i.v. administration of the compound; (SE +/- 5); type: functional, Canis lupus familiaris; details: route intravenous
[20] = species on record: Cavia porcellus; test: Calcium antagonistic activity in isolated guinea pig Tenia coli specimens; (SE +/- 0.08); type: functional; details: read-out: pA2 (converted)
[21] = system: Canis familiaris; test: Ability to increase coronary blood flow after intra duodenal administration at 3 mg/kg in dog; (SE +/- 27); type: functional, Canis lupus familiaris; details: route intraduodenal
[22] = system: Canis familiaris; test: Coronary vasodilatory activity as increase in coronary flow was determined in dogs after 0.1 mg/kg i.v. administration of the compound; (SE +/- 6.6); type: functional, Canis lupus familiaris; details: route intravenous
[23] = system: Canis familiaris; test: Coronary vasodilatory activity as increase in coronary flow was determined in dogs after 0.1 mg/kg i.v. administration of the compound; (SE +/- 22.2); type: functional, Canis lupus familiaris; details: route intravenous
[24] = species on record: Cavia porcellus; test: Calcium antagonistic activity in isolated guinea pig Tenia coli specimens; (SE +/- 0.13); type: functional; details: read-out: pA2 (converted)
[25] = system: Canis familiaris; test: Coronary vasodilatory activity as increase in coronary flow was determined in dogs after 0.1 mg/kg i.v. administration of the compound; (SE +/- 13.1); type: functional, Canis lupus familiaris; details: route intravenous
[26] = system: Canis familiaris; test: Coronary vasodilatory activity as increase in coronary flow was determined in dogs after 0.1 mg/kg i.v. administration of the compound; (SE +/- 3.3); type: functional, Canis lupus familiaris; details: route intravenous
[27] = system: Canis familiaris; test: Coronary vasodilatory activity as increase in coronary flow was determined in dogs after 0.1 mg/kg i.v. administration of the compound; (SE +/- 12.9); type: functional, Canis lupus familiaris; details: route intravenous

CCOP(=O)(Cc1ccc(-c2nc3ccccc3s2)cc1)N1CCCC1=S (stereo not drawn)
Max increase [1]: 64.9%

CCOP(=O)(Cc1ccc(-c2nc3ccccc3s2)cc1)N1CCCCCCC1=O (stereo not drawn)
Max increase [2]: 70.7%

CCOP(=O)(Cc1ccc(-c2nc3ccccc3s2)cc1)NCCCl (stereo not drawn)
Max increase [3]: 31.2%

CCOP(=O)(Cc1ccc(-c2nc3ccccc3s2)cc1)N1CCCC1=O (stereo not drawn)
logP [4]: 3
Change in blood flow [5]: 104%
Kb [6]: 29.5 nM
Max increase [7]: 124.1%
LD50 at 168 h [8]: 2110 mg/kg
CBF-ID75 [9]: 41.4 µg/kg

CCOP(=O)(Cc1ccc(-c2nc3ccccc3s2)cc1)N1CCOCC1 (stereo not drawn)
Max increase [3]: 69%

CCOP(=O)(Cc1ccc(-c2nc3ccccc3s2)cc1)NCc1ccccc1 (stereo not drawn)
Max increase [10]: inactive

CCOP(=O)(Cc1ccc(-c2nc3ccccc3s2)cc1)OC (stereo not drawn)
logP [4]: 3.5

CCOP(=O)(Cc1ccc(-c2nc3ccccc3s2)cc1)N1CCCCCC1 (stereo not drawn)
Max increase [3]: 49.3%

CCOP(=O)(Cc1ccc(-c2nc3ccccc3s2)cc1)N1CCSC1=O (stereo not drawn)
Max increase [11]: 155.3%
LD50 at 168 h [8]: > 1000 mg/kg
CBF-ID75 [9]: 50.4 µg/kg

CCOP(=O)(Cc1ccc(-c2nc3ccccc3s2)cc1)N1CCSC1=S (stereo not drawn)
Max increase [1]: 51.8%

COc1ccc([C@@H]2Sc3ccccc3N(CCN(C)C)C(=O)[C@@H]2OC(C)=O)cc1.Cl [DILTIAZEM HYDROCHLORIDE]
Change in blood flow [12]: 52%
Kb [13]: 50.1 nM
LD50 at 168 h [8]: 508 mg/kg
CBF-ID75 [9]: 77.1 µg/kg

CCOP(=O)(Cc1ccc(-c2nc3ccccc3s2)cc1)N(CC)CC (stereo not drawn)
Max increase [14]: 79.7%

CCOP(=O)(Cc1ccc(-c2nc3ccccc3s2)cc1)N1CC=CC1 (stereo not drawn)
Max increase [3]: 80.6%

CCOP(=O)(Cc1ccc(-c2nc3ccccc3s2)cc1)N1CCCCC1 (stereo not drawn)
Max increase [15]: 81.3%

CCOP(=O)(Cc1ccc(-c2nc3ccccc3s2)cc1)N1CCCCC1=O (stereo not drawn)
Max increase [1]: 101.9%
Change in blood flow [16]: 40%
LD50 at 168 h [8]: > 1000 mg/kg
Kb [17]: 35.5 nM
CBF-ID75 [9]: 55.2 µg/kg

Cc1ccc(-c2nc3ccccc3s2)cc1
logP [4]: 3.7

CCOP(=O)(Cc1ccc(-c2nc3ccccc3s2)cc1)N1CCCCCC1=O (stereo not drawn)
Change in blood flow [18]: 69%
Kb [6]: 34.7 nM
Max increase [7]: 102.8%
LD50 at 168 h [8]: > 1000 mg/kg
CBF-ID75 [9]: 55 µg/kg

CCOP(=O)(Cc1ccc(-c2nc3ccccc3s2)cc1)NC1CC1 (stereo not drawn)
Max increase [3]: 41.1%

CCOP(=O)(Cc1ccc(-c2nc3ccccc3s2)cc1)OCC [FOSTEDIL]
Max increase [19]: 82.2%
Kb [20]: 61.7 nM
Change in blood flow [21]: 92%
LD50 at 168 h [8]: 1190 mg/kg
CBF-ID75 [9]: 116 µg/kg

CCOP(=O)(Cc1ccc(-c2nc3ccccc3s2)cc1)N1CCN(C)CC1 (stereo not drawn)
Max increase [3]: 49.3%

CCOP(=O)(Cc1ccc(-c2nc3ccccc3s2)cc1)N1CCCCC1=S (stereo not drawn)
Max increase [22]: 24.7%

CCOP(=O)(Cc1ccc(-c2nc3ccccc3s2)cc1)N1CCOC1=O (stereo not drawn)
Max increase [23]: 141.4%
LD50 at 168 h [8]: 671 mg/kg
Kb [24]: 25.7 nM
CBF-ID75 [9]: 77.3 µg/kg

CCOP(=O)(Cc1ccc(-c2nc3ccccc3s2)cc1)N1CCCC1 (stereo not drawn)
Max increase [25]: 101.1%

CCNP(=O)(Cc1ccc(-c2nc3ccccc3s2)cc1)OCC (stereo not drawn)
Max increase [3]: 31.2%

CCOP(=O)(Cc1ccc(-c2nc3ccccc3s2)cc1)NC(C)C (stereo not drawn)
Max increase [3]: 73.2%

CCOP(=O)(Cc1ccc(-c2nc3ccccc3s2)cc1)N1CCN(Cc2ccc(OC)c(OC)c2OC)CC1.O=C(O)/C=C/C(=O)O (stereo not drawn)
Max increase [26]: 103.5%

CCOC(=O)Cc1ccc(-c2nc3ccccc3s2)cc1
logP [4]: 3.2

CCOP(=O)(Cc1ccc(-c2nc3ccccc3s2)cc1)N1CCN(CC)C(=O)C1=O (stereo not drawn)
Max increase [27]: 51.8%

— ChEMBL document CHEMBL1124876, “Organic phosphorus compounds. 5. (4-Benzothiazol-2-ylbenzyl)amidophosphonate as potent calcium antagonistic vasodilators” (J Med Chem, 1990)
